According to publication PMC9002265, “A New Series of Strigolactone Analogs Derived From Cinnamic Acids as Germination Inducers for Root Parasitic Plants” (Frontiers in Plant Science, 2022):
Like-named read-outs stand apart in the source and are kept apart here.

How the values were obtained:
[1] = target: T1, ShHTL7 (Striga hermonthica, UniProt A0A0M3PNA2); experiment: YLG assay (inhibition of YLG hydrolysis) with recombinant ShHTL7; assay type: biochemical
T1 sequence (A0A0M3PNA2 1-271): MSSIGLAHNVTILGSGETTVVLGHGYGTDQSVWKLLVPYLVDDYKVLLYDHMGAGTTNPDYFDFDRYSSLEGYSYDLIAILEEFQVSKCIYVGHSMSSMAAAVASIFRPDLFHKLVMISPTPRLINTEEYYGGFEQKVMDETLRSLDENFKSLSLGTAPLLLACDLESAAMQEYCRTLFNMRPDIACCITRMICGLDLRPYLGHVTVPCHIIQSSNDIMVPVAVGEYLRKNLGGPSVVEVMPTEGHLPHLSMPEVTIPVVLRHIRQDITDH
Method: (§1) The ORF fragment of ShHTL6 and ShHTL7 was synthesized using IDT gBlock service. The PCR amplified ShHTL6 and ShHTL7 fragment was digested with Nco I and EcoR I, and the digested product was introduced into a modified pET28 vector with an N-terminal His8 tag. Escherichia coli BL21(DE3) was used for protein expression. The overnight culture (12 ml) was added to a fresh LB medium (1.2 L) containing kanamycin (50 mg/L) at 37°C. After OD600 reached 0.8, 0.1 mM IPTG was added and the cell was further incubated at 16°C for 21 h. The culture medium was centrifuged at 3700 g and the pellet was stored at −20°C until use. The pellet was resuspended and sonicated in a lysis buffer (50 mM Tris buffer (pH 8.0) containing 500 mM NaCl, 10 mM 2-mercaptoethanol, and 10% glycerol). The supernatant was purified by Ni Sepharose TM 6 Fast Flow (500 μl, Cytiva). After washing with the washing buffer (50 mM Tris buffer (pH 8.0) containing 500 mM NaCl and 20 mM imidazole), The bound protein was eluted with elution buffer (50 mM Tris buffer (pH 8.0) containing 500 mM NaCl and 200 mM imidazole). The eluate was concentrated using VIVASPIN Turbo 15 (Sartorius), and the concentration was adjusted to 5 mg/ml. The purified protein was aliquoted to the appropriate volume, immediately frozen in liquid nitrogen, and stored at −80°C until use.
(§2) After YLG was incubated with recombinant ShHTL6 or ShHTL7 for 1 h, the fluorescence was measured by spectraMax i5 (Molecular Devices) at excitation by 480 nm and detection by 520 nm. IC50 values were calculated using the online tool Quest GraphTM IC50 Calculator (AAT Bioquest, Inc., United States; https://www.aatbio.com/tools/ ic50-calculator).

[2] = test system: Arabidopsis wild type Col-0; experiment: Growth promoting assay and root phenotypic analysis; assay type: in vivo; settings: 1 μM on agar plate
Method: Sterilized seeds of the Arabidopsis wild type Col-0 were put on the plate containing 1% (w/v) agar-solidified 0.5× Murashige and Skoog (MS) medium, 1% sucrose. Test compounds were dissolved in the medium at 1 μM by 10,000 times dilution from each acetone stock (final concentration of acetone was 0.01% (v/v)). To evaluate the growth promoting effect, these seedlings were cultured horizontally at 22°C for 20 days under LED light (105 μmol/m^2/s) with a 16 h light/8 h dark photoperiod. After the cultivation, flesh weight of shoot was measured. For root phenotypic analysis, these seedlings were cultured verticaly at 22°C for 11 days under LED light (105 μmol/m^2/s) with a 16 h light/8 h dark photoperiod. After the cultivation, root length was measured by using ImageJ software and number of lateral roots was counted by using a microscope.

[3] = target: T1, ShHTL7; experiment: Hydrolysis assay with recombinant ShHTL7; assay type: biochemical; settings: 10 μM substrate, 30°C, 60 min
Method: as §1
(§3) Hydrolysis assays were carried out at 30°C for 60 min in 100 μl of a reaction buffer containing 0.13 pmol recombinant ShHTL7 or AtD14, 10 μM of substrate in 50 mM Phosphate-Na buffer (pH 7.0) containing 2% acetone. The enzyme reaction was stopped by addition of 100 μl of acetonitrile containing 1-naphtaleneacetic acid (NAA; 0.5 ng/μl) as an internal standard. After centrifuged at 13,000 rpm for 5 min, each sample was subjected to LC–MS/MS analysis equipped with reverse-phase column (CORTECS UPLC Phenyl 1.6 μm, ϕ2.1 × 75 mm; Waters). The concentration of remaining substrate and reaction product was calculated by using NAA as an internal standard. Detailed information about the analytical condition is described in Supplementary Table 1.

[4] = target: T2, AtD14 (Arabidopsis thaliana, UniProt Q9SQR3); experiment: Hydrolysis assay with recombinant AtD14; assay type: biochemical; settings: 10 μM substrate, 30°C, 60 min
T2 construct: The cDNA of AtD14 was introduced into pMALHis vector; MBP; His6; made in house; host or cells: E. coli BL21 (DE3)
T2 sequence (Q9SQR3 1-267): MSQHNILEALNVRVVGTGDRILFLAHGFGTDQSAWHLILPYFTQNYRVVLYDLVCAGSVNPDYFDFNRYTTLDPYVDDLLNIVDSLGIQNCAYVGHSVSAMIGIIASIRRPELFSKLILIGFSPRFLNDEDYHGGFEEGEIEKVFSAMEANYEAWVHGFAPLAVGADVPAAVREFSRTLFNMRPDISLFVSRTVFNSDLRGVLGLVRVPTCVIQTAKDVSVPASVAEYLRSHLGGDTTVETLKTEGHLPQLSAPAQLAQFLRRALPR
Method: The cDNA of AtD14 was introduced into pMALHis vector that has both MBP-tag and His6-tag. The vector was transformed in to E. coli BL21 (DE3) and the cell was precultured in LB medium containing 50 μg/ml ampicillin. Overnight cultures (10 ml) were added to fresh LB medium (1 L) containing 50 μg/ml ampicillin and it was cultured at 37°C. After OD600 reached to 0.8, the cultures were cooled at 16°C for 1 h, and then 0.1 mM IPTG was added. The culture was further incubated at 16°C for 20 h. The culture medium was centrifuged at 3,700 g and the pellet was stored at −20°C until use. The pellet was resuspended and sonicated in lysis buffer (50 mM Tris buffer (pH 8.0) containing 500 mM NaCl, 10 mM 2-mercaptoethanol, and 10% glycerol). The supernatant was purified by Ni Sepharose TM 6 Fast Flow (500 μl, Cytiva) After washing with the washing buffer (50 mM Tris buffer (pH 8.0) containing 500 mM NaCl and 20 mM imidazole), The bound protein was eluted with elution buffer (50 mM Tris buffer (pH 8.0) containing 500 mM NaCl and 200 mM imidazole). The eluate was concentrated using VIVASPIN Turbo 15 (Sartorius), and the concentration was adjusted to 5 mg/ml. The purified protein was aliquoted to the appropriate volume, immediately frozen in liquid nitrogen, and stored at −80°C until use.
as §3

[5] = target: T3, ShHTL6 (Striga hermonthica, UniProt A0A0M4AUV4); experiment: YLG assay (inhibition of YLG hydrolysis) with recombinant ShHTL6; assay type: biochemical
T3 sequence (A0A0M4AUV4 1-271): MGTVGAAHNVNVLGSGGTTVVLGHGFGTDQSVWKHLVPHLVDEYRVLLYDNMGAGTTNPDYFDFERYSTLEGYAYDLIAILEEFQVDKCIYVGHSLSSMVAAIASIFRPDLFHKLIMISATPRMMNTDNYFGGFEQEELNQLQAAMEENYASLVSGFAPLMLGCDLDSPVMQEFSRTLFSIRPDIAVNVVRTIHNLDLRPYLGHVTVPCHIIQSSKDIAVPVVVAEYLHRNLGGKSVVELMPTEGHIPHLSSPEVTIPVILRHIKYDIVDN
Method: as §1, §2

[6] = Time course monitoring of degradation in hydroponic culture; assay type: physicochemical; settings: 1 μM, within 1 week, pH 5.7, LC-MS/MS
Method: t-CASL1, c-CASL1, PPASL, and GR5 were separately added to 15 ml tubes containing hydroponic culture. The final concentration of the test compounds is 1 μM and acetone was adjusted to 0.01% (v/v). These solutions were incubated under the same conditions as branching assay. After incubation for 0, 5, 24 72, or 168 h, 495 μl of hydroponic culture containing test compounds was collected and 5 μl of NAA solution (10 μM) was added as an internal standard. The solution was extracted with ethyl acetate. The ethyl acetate phase was dried up under the nitrogen gas and dissolved in acetonitrile. These samples were subjected to LC–MS/MS analysis equipped with reverse-phase column (CORTECS UPLC Phenyl 1.6 μm, ϕ2.1 × 75 mm; Waters). Each peak area of test chemicals and internal standard was calculated, and the remaining percentage of teste chemicals was calculated. At the same time, the degradation products of test compounds (CA or PPA) were also analyzed. Detailed information about the analytical condition was described in Supplementary Table 1.

[7] = test system: Orobanche minor seeds; experiment: Germination assay, Orobanche minor seeds; assay type: in vivo; settings: O. minor seeds; result in words
Method: Orobanche minor seeds were washed with 70% EtOH, and then sonicated for 4 min in 1% sodium hypochlorite solution containing 0.2% Tween-20. The seeds were then washed 10 times with sterile water and suspended in 0.1% agar solution. The seeds were loaded onto 5-mm glass fiber filter disks (20–70 seeds/disk) and were conditioned at 23°C for 15 days. Each disk was transferred into a 96-well plate. A 30 μl aliquot of test chemical solution was added to the well. For the germination assay, the chemical solutions were prepared by 1,000 times dilution from each acetone stock solution with water (final acetone concentration was 0.1%). GR24 solution (0.1% acetone) and sterile water (0.1% acetone) was used as positive and negative control, respectively. The 96 well plates were incubated for 5 days at 23°C and the number of total seeds and germinated seeds was counted.

[8] = 1 h incubation, read-out: IC50 in YLG assay
[9] = read-out: IC50 in YLG assay, 1 h incubation

| SMILES | IC50 [1, 8] | further results |
| --- | --- | --- |
| CC1=CC(OC(=O)/C=C\c2ccc(Cl)cc2)OC1=O (stereo not drawn) [c-CASL9] | 0.34 µM |  |
| CC1=CC(OC(=O)/C=C\c2ccc(O)cc2)OC1=O (stereo not drawn) [c-CASL3] | 3.43 µM |  |
| O=C(O)/C=C\c1ccccc1 [cis-CA, cis-cinnamic acid, reference compound] |  | lateral root density ([2]; 11 days): increased; primary root length ([2]; 11 days): inhibited; shoot fresh weight ([2]; 20 days): increase |
| CC1=CC(OC(=O)/C=C/c2ccc(Br)cc2)OC1=O (stereo not drawn) [t-CASL8] | 0.7 µM |  |
| CC1=CC(OC(=O)/C=C\c2ccc([N+](=O)[O-])cc2)OC1=O (stereo not drawn) [c-CASL6] | 0.25 µM |  |
| CCOc1ccc(/C=C\C(=O)OC2C=C(C)C(=O)O2)cc1 (stereo not drawn) [c-CASL5] |  | IC50 [1, 9]: 0.31 µM |
| CC1=CC(OC(=O)/C=C/c2ccc([N+](=O)[O-])cc2)OC1=O (stereo not drawn) [t-CASL6] | 0.71 µM |  |
| CCOc1ccc(/C=C/C(=O)OC2C=C(C)C(=O)O2)cc1 (stereo not drawn) [t-CASL5] |  | IC50 [1, 9]: 3.97 µM |
| CC1=CC(OC(=O)/C=C/c2ccccc2)OC1=O (stereo not drawn) [t-CASL1] | 2.05 µM | hydrolysis by HTL7 [3]: can hydrolyze; hydrolysis by AtD14 [4]: can hydrolyze; IC50 [5]: 1.85 µM; loss (non-enzymatic degradation) in hydroponic culture medium [6]: ~40% |
| CC1=CC(OC(=O)/C=C/c2ccc(O)cc2)OC1=O (stereo not drawn) [t-CASL3] | > 10 µM |  |
| CC1=CC(OC(=O)/C=C\c2ccc(C)cc2)OC1=O (stereo not drawn) [c-CASL2] | 0.68 µM |  |
| CC1=CC(OC(=O)/C=C/c2ccc(F)cc2)OC1=O (stereo not drawn) [t-CASL7] | 1.55 µM |  |
| CC1=CC(OC(=O)/C=C\c2ccc(F)cc2)OC1=O (stereo not drawn) [c-CASL7] | 1.14 µM |  |
| CC1=CC(OC(=O)/C=C2/CCc3ccccc32)OC1=O (stereo not drawn) [c-indCASL] | 2.01 µM |  |
| CC1=CC(OC(=O)/C=C/c2ccc(C(F)(F)F)cc2)OC1=O (stereo not drawn) [t-CASL10] | 0.34 µM |  |
| CC1=CC(OC(=O)/C=C/c2ccc(C)cc2)OC1=O (stereo not drawn) [t-CASL2] | 1.41 µM |  |
| CC1=C[C@H](O/C=C2/C(=O)O[C@@H]3c4ccccc4C[C@H]23)OC1=O (relative stereo) [GR24, reference compound] | 0.17 µM | IC50 ([5]; ShHTL6, YLG hydrolysis, 1 h incubation, read-out: IC50 in YLG assay): 2.35 µM |
| CC1=CC(OC(=O)/C=C\c2ccc(C(F)(F)F)cc2)OC1=O (stereo not drawn) [c-CASL10] | 0.22 µM |  |
| CC1=CC(OC(=O)CCc2ccccc2)OC1=O (stereo not drawn) [PPASL] | 1.46 µM | hydrolysis by HTL7 [3]: can hydrolyze; hydrolysis by AtD14 [4]: can hydrolyze; IC50 [5]: 2.24 µM; germination-inducing activity compared with c-CASL1 or t-CASL1 [7]: much weaker activity |
| CC1=CC(OC(=O)/C=C/c2ccc(Cl)cc2)OC1=O (stereo not drawn) [t-CASL9] | 0.83 µM |  |
| COc1ccc(/C=C\C(=O)OC2C=C(C)C(=O)O2)cc1 (stereo not drawn) [c-CASL4] | 0.66 µM |  |
| COc1ccc(/C=C/C(=O)OC2C=C(C)C(=O)O2)cc1 (stereo not drawn) [t-CASL4] | 2.21 µM |  |
| CC1=CC(OC(=O)/C=C\c2ccc(Br)cc2)OC1=O (stereo not drawn) [c-CASL8] | 0.36 µM |  |
| CC1=CC(OC(=O)/C=C2\CCCc3ccccc32)OC1=O (stereo not drawn) [t-tetCASL] | 3.85 µM | germination-inducing activity compared with the corresponding non-fixed (unfixed) analog [7]: much stronger activity |
| CC1=CC(OC(=O)/C=C2/CCCc3ccccc32)OC1=O (stereo not drawn) [c-tetCASL] | 4.61 µM |  |
| CC1=CC(OC(=O)/C=C2\CCc3ccccc32)OC1=O (stereo not drawn) [t-indCASL] | 3.07 µM | germination-inducing activity compared with the corresponding non-fixed (unfixed) analog [7]: much stronger activity |
